Values of other authors as cited in patent EP2231118B2, “SUSPENSION COMPRISING NON-MICRONIZED EZETIMIBE MICRO-PARTICLES” (KRKA, tovarna zdravil, d.d., Novo mesto, priority 2007, dated 2009).

O=C1[C@H](CC[C@H](O)c2ccc(F)cc2)[C@@H](c2ccc(O)cc2)N1c1ccc(F)cc1 [Ezetimibe, 1-(4-fluorophenyl)-3(R)-[3-(4-fluorophenyl)-3(S)-hydroxypropyl]-4(S)-(4-hydroxyphenyl)-2-azetidinone]
solubility in water: practically insoluble
